Data reported in patent US9512172B2, “Ethanol dependence of alpha1 antitrypsin C-terminal Lys truncation by basic carboxypeptidases” (Baxalta Incorporated, priority 2006, dated 2016).
One block for each compound: values may come before it.

How the values were obtained:
CPN present in the paste = target: T1, CPN present in the paste (Homo sapiens, UniProt P15169); test: Effect of CP inhibitors on C-terminal lysine truncation in dissolved, ethanol-treated IV-1 paste (IEF); type: biochemical
T1 construct: Cohn IV-1 precipitate is usually derived after ethanol fractionation of plasma; from tissue; host or cells: Cohn IV-1 paste (ethanol precipitate of plasma)
T1 sequence (P15169 21-458): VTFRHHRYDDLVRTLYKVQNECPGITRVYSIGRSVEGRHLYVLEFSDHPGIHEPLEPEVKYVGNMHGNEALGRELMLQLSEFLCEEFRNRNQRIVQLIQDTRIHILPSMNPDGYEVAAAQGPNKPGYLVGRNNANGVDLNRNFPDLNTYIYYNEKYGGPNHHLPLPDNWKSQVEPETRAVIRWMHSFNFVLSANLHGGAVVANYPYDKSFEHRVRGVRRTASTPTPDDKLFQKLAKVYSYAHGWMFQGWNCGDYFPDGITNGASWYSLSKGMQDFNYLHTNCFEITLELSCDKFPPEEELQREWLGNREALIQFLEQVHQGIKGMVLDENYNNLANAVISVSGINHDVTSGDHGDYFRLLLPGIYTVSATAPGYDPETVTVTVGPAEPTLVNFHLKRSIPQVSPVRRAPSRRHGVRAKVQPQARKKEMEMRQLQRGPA
T1 sequence (P22792 22-545 partner): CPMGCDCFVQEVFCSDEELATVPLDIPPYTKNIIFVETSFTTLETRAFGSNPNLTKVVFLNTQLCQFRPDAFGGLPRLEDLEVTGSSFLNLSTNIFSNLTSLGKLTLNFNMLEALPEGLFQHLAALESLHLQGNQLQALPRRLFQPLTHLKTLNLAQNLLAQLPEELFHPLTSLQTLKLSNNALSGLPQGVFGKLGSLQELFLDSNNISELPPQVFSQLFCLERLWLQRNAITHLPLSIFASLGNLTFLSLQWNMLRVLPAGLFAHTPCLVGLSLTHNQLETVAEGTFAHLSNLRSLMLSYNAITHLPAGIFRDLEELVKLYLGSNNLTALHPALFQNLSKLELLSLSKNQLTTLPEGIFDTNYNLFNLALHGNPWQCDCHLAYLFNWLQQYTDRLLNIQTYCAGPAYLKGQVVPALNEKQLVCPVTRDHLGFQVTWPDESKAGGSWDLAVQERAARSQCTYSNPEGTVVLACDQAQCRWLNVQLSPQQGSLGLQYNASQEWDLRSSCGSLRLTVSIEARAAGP
Description: Cohn IV-1 paste was dissolved in 2.6 volumes of 10 mM Tris-buffer at pH 8.8 and incubated for 30 min at 22° C. The suspension was made 40% in ethanol (by addition of 2.4 volumes of ethanol), stirred for a further 60 min, diluted with the same Tris-buffer to 10% ethanol and extracted for a further 6 h.
The following inhibitors were added in parallel during extraction and dilution with Tris-buffer: 100 mM 6-aminocaproic acid, 10 μM or 1 nM 2-mercaptomethyl-3-guanidinoethylthiopropanoic acid (a more specific inhibitor of CPN). The samples were characterized by high resolution isoelectric focusing.
For high resolution isoelectric focusing a new hybrid IEF method using IPG-Immobiline gels (GE Healthcare Bio-Sciences, pI 4.2-4.9, Uppsala, Sweden) was developed which is similar to that described by Weidinger^54. Samples were diluted with water to 0.5 mg A1PI/mL and 5 mM DTE was added. Samples (20 μl) were applied close to the cathode on the pre-focused gel and focused for 150 min (5000 Vh). For paste extracts focusing time was extended to 420 min. Gels were stained with Coomassie Brilliant Blue G-250 (BioRad, Hercules, USA) as described by Neuhoff^55. Blotting and immunostaining were done with a rabbit anti-A1PI antibody (Rabbit Anti-Human Alpha-1-Antitrypsin, #A0012, DakoCytomation, Glostrup, Denmark).

CPU = target: T2, CPU (Homo sapiens, UniProt Q96IY4); settings: cited from earlier work
T2 sequence (Q96IY4 115-423): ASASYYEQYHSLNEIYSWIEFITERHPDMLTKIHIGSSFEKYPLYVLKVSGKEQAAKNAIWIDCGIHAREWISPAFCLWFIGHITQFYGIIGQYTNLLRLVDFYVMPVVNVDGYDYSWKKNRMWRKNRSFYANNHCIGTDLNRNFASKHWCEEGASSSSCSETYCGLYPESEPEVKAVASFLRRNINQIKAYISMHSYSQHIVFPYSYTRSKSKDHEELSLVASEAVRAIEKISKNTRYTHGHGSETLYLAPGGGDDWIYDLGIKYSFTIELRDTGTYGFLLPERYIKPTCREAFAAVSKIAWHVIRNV

CPN [1] = target: T3, CPN (Homo sapiens, UniProt P15169); settings: cited from earlier work
T3 sequence (P15169 21-458): T1 sequence (P15169 21-458)
T3 sequence (P22792 22-545 partner): T1 sequence (P22792 22-545 partner)

CPN [2] = target: T3, CPN; settings: at 10% ethanol
Description: The activity of the basic carboxypeptidases was measured with a HPLC-assisted assay as described^52. This assay is based on the cleavage of the synthetic substrate hippuryl-L-arginine. Released hippuric acid was determined with reverse phase high performance liquid chromatography (RP-HPLC). Briefly, to 10 μl of sample, 40 μl of 30 mM hippuryl-L-arginine (Bachem Feinchemikalien, Buchs, Switzerland) in 50 mM HEPES, pH 8.0, was added and incubated for 30 minutes at 37° C. in a water bath. Hippuryl-L-arginine cleavage was stopped by adding 50 μl of 1 M HCl. 10 μl of o-methyl hippuric acid (synthesized from methylbenzoyl chloride) serving as an internal standard was added afterwards. The hippuric acid (Bz-Gly, Fluka, Buchs, Switzerland) and o-methyl hippuric acid were extracted with ethyl acetate (300 μl). This layer was evaporated to dryness, redissolved in the mobile phase (10 mM KH2PO4, 10% acetonitrile, pH 3.5) and injected unto the column (C-18 Chromolith, performance 100-4.6 mm column (Merck, Darmstadt, Germany). The separation was done in isocratic mode and monitored at 228 nm. One unit of carboxypeptidase activity is defined as the amount of enzyme required to release 1 μmol of hippuric acid per min at 37° C. under the assay conditions described.

[3] = HP-SEC aggregate content of A1PI products; type: physicochemical
Description: (§1) ARALAST® (Alpha1-Proteinase Inhibitor (Human)), Prolastin PROLASTIN® (Alpha1-Proteinase Inhibitor (Human)), and ZEMAIRA® (Alpha1-Proteinase Inhibitor (Human)) were analyzed by high-resolution IEF and high-performance size-exclusion chromatography (HP-SEC). Preparative separated isoforms from IEF were further purified by chromatography and subjected to mass spectrometry for sequence analyses, peptide mapping, and glycosylation analysis. Deamidation was quantified by enzymatic isoaspartate detection. Multiple sequence alignments and structural bioinformatics analyses were performed.

CPN [4] = target: T3, CPN; test: CPN-catalysed removal of C-terminal lysine from A1PI products, released Lys by HPLC; type: biochemical; parameters: purchased Elastin Company
Description: The cleaved C-terminal lysine of A1PI was determined using automated orthophtalicdialdehyd (OPA) pre-column derivatization and high-performance liquid chromatography. The derivatization reagent was prepared by dissolving 100 mg of OPA in 2.5 mL of methanol by short ultrasonication, adding 23 mL of deoxygenated sodium borate buffer (0.2 mol/L, pH 9.0), 100 μl of 2-mercaptoethanol and 100 μl of Brij 35 as described^53. The system used was an ASTED HPLC system (Gilson, Paris) with Shimadzu RF-A fluorescence detector and a C-18 Chromolith ODS 4.7*100 mm column. A mixture of 50 mM KH2PO4, acetonitrile and methanol (ratio 50:24:26) was used as mobile phase and ornithine was used as internal standard.
To 30 μl 0.5 mM A1PI (using ARALAST® (Alpha1-Proteinase Inhibitor (Human)) or PROLASTIN® (Alpha1-Proteinase Inhibitor (Human))) 10 μl water or ethanol (different concentrations) was added. Afterwards 10 μl CPN (500 U/L) was added and after a 10 minutes incubation interval the reaction was stopped by adding 50 μl internal standard in 0.25 M HCl. The cleaved lysine was quantified as described above.

[5] = Percent C-terminal Lys truncated (des-Lys) A1PI in A1PI products; type: physicochemical, human; settings: commercial product
Description: as §1

- Inhibition of Lys truncation induced by the procedure 40=>10% EtOH (CPN present in the paste; dissolved IV-1 paste, pH 8.8, 6 h): dose-dependently
- Inhibition of lysine removal from A1PI (CPN present in the paste; inhibitor at 10 μmol/l): completely inhibited
Compound: N=C(N)NCCSCC(CS)C(=O)O (racemic) [DL-2-mercaptomethyl-3-guanidinoethylthio-propanoic acid]
- Ki (CPU): 200 nM
- Ki (CPN [1]): 8.7 nM

- Rate of substrate (Bz-Gly-Arg) cleavage by CPN (CPN [2]): almost doubled
Compound: CCO [ethanol]

- Lys removed by CPN (CPN [4]; absence of ethanol): very small amounts
- Ethanol concentration at which linear increase of Lys removal starts (CPN [4]; incubation with CPN, 10 min): 5 % ethanol
Compound: PROLASTIN: Alpha1-Proteinase Inhibitor (Human), approved plasma-derived A1PI concentrate, purified from fraction IV-1
- Aggregate content [3]: approximately 30%

Compound: ZEMAIRA: Alpha1-Proteinase Inhibitor (Human), approved plasma-derived A1PI concentrate
- Percent of A1PI C-terminal truncation as compared to total A1PI protein [5]: 6%
